# Measurements taken from patent publication US4806361A, “Medicaments in sustained release unit dose form” (Sterling Drug Inc., priority 1984, dated 1989).
# Key:
# [1] = Urinary recovery of active ingredient over 0-24 hours (HPLC); parameters: species or system human; conditions: in vivo
# Protocol: After measuring volume and pH, aliquots were stored below -15° C. pending assay for the active ingredient by a validated HPLC procedure.
# The resulting linear regression was used to determine urine concentrations of the active ingredient in each sample. Recovered amounts of the active ingredient were then calculated from the urine volume for the collection period of each sample.
# [2] = pH 6.0-7.0; cited from earlier work
Compound,Excretion [1],Metabolism [1],Solubility [2]
"Cc1[nH]c(=O)c(C#N)cc1-c1ccncc1 [1,2-dihydro-3-cyano-6-methyl-5-(4-pyridinyl)-2(1H)-pyridinone]",excreted in the urine,only slightly metabolized,
OCCN(CCO)c1nc(N2CCCCC2)c2nc(N(CCO)CCO)nc(N3CCCCC3)c2n1 [dipyridamole],,,insoluble
